Reference: US9845327B2, “Treatment of proteinopathies” (THE GENERAL HOSPITAL CORPORATION, priority 2011, dated 2017)
One block for each compound: values may come before it.

Tests used:
[1] = target: T1, recombinant human α-synuclein (Homo sapiens, UniProt P37840); experiment: In vitro α-synuclein fibril (amyloid) formation with lipid dispersions, thioflavin T fluorescence
T1 construct: made in house; host or cells: E. coli BL21 CodonPlus (DE3)-RIL
Description: In this Example, lipid dispersions made of mixtures of purified GlcCer and brain phosphatidylcholines (PCs) were incubated with α-synuclein at physiological conditions (pH 7.4, 37° C.). Electron microscopy (EM) analysis indicated the formation of tubules consisting of polymerized GlcCer (FIGS. 7G-7I), similar to those previously observed in Gaucher cells in patients and mouse models (Lee, PNAS 61: 484, 1968).
However, increasing the amount of GlcCer to 75% while keeping the total lipid amount constant (PC25/GlcCer75) altered the kinetic profile of α-synuclein fibril formation by delaying the formation of insoluble thioT-positive α-synuclein fibrils, extending the lag time from 2 to 16 hr (FIG. 7A).
The fibril assembly phase PC25/GlcCer75-containing reactions occurred between 16 and 24 hr, compared to control reactions where the assembly occurred between 2 and 24 hr. […] The aggregated species formed at the end stage of the fibril-forming reaction, after assembly was completed and equilibrium was reached (at 28 hr) were further analyzed. […]
α-synuclein was expressed in E. coli and purified by boiling followed by HPLC as described previously (Mazzulli et al 2007). […] Fluorescence (ex=430 nm, em=510, 0.1 s) was determined in a Wallac Victor^2 plate reader (Perkin Elmer) in black FluorNunc Maxisorp 96 well plates (Nunc, #475515). […]

[2] = target: T1, recombinant human α-synuclein; experiment: In vitro soluble α-synuclein oligomers and sedimentation with lipids (SEC/SDS-PAGE, ANS, 100,000 x g centrifugation)
Source text: Therefore, in this Example it was hypothesized that the delay in fibril formation observed in vitro resulted from a kinetic stabilization of a soluble oligomeric intermediate species. To test this, the nature of the species that form during the lag phase (between 1 and 16 hr) of PC25/GlcCer75-containing reactions were characterized by analytic biochemical methods. Soluble portions of the reaction mixtures were obtained by centrifugation at 100,000×g and analyzed at 1 and 5 hr after the addition of lipids by SEC/SDS-PAGE. […] Further, detected were increased amounts of soluble SDS and heat-stable dimers (36 kDa), trimers (54 kDa), and higher oligomeric species eluting as 36-27 Å-sized particles in PC25/GlcCer75-containing reactions compared to controls (FIG. 7B). […] Syn505 also detected α-synuclein directly on GlcCer tubular structures (FIG. 7G, i and ii) but not on GlcCer-alone reactions (FIG. 7I), indicating an association of misfolded α-synuclein with GlcCer. α-synuclein-GlcCer reactions were further analyzed by 8-anilino-1-napthalene sulfonate (ANS) binding, a fluorescent dye used to detect aggregation-prone conformational intermediates (Stryer, 1965). […]
Oligomers were also detected by 8-anilino-1-napthalene sulfonate (ANS) (Acros #401220050). […]

GCase polypeptide = target: T2, GCase polypeptide (Homo sapiens, UniProt P04062); experiment: GCase polypeptide levels and post-ER forms by western blot in human iPS dopamine neurons; assay type: cell-based; details: human midbrain iPS dopamine neurons
T2 construct: endogenous in cells; host or cells: human iPS-derived midbrain dopamine neurons (healthy control; PD patient with SNCA triplication, Coriell ND27760)
T2 sequence (P04062 40-536): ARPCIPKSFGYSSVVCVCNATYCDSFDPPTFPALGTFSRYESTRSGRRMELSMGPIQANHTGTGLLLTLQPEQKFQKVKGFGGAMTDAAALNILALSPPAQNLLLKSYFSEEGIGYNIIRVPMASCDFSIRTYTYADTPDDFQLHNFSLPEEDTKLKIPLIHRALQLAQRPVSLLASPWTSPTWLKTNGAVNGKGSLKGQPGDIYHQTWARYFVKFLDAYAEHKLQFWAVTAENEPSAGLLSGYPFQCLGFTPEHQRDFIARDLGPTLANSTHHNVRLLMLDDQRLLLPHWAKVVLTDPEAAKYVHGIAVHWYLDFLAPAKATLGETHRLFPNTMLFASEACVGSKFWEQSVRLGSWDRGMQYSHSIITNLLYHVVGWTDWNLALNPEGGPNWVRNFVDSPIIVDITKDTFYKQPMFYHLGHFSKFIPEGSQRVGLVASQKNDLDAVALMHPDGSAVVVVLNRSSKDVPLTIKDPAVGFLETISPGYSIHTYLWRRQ
Description: In this Example, human dopamine neurons generated from iPS cells of an unaffected control were treated with a pharmacological chaperone activator of GCase polypeptide, isofagomine (IFG). […] Treatment of wild-type neurons with 100 μM IFG for 5 days followed by 1 day wash-out increased the levels of GCase polypeptide (FIGS. 15A and 15B). This increase was likely due to the fact that wild-type GCase polypeptide was occasionally misfolded in the ER and degraded (about 30% of the total made in the ER), and IFG appeared to also stabilize the wild-type misfolded forms.
(§1) It was also shown in this Example that treatment with the GCase polypeptide activator increased the levels of total GCase protein and increased the post-ER forms, indicating enhancement of flux to the lysosome (FIG. 19B).
In this Example, the effect of combining the GCase polypeptide pharmacological chaperone IFG with the antioxidant n-acetyl-cysteine (NAC) on GCase polypeptide maturation in PD iPS neurons was tested. Neurons were treated with either IFG, NAC, or IFG and NAC together, and GCase polypeptide maturation was analyzed by western blot.
(§2) Most materials for SDS-PAGE were obtained from Invitrogen (NuPAGE system). Protein lysates were boiled in sample buffer (20 mM Tris, 1% (v/v) glycerol, 180 mM β-mercaptoethanol, 0.003% (w/v) bromophenol blue, 2% (w/v) SDS, pH 6.8), resolved on 4%-12% Bis-Tris polyacrylamide precast gels in a MOPS-SDS running buffer, or 4%-12% Tris-Glycine gels. 10% Tris-Glycine gels were utilized for some GCase polypeptide western blot's (FIGS. 13B, 13D, and 13E, and FIGS. 14C and 14F). […] Blots were blocked in Odyssey blocking buffer (Li-Cor biosciences) containing 0.05% Tween, or 5% non-fat dry milk in TBS-T 0.2%, followed by incubation with primary antibodies (see above for dilutions), and detected with anti-mouse or -rabbit IgG conjugated to IRDye 680 or 800 (1:10,000, Li-Cor biosciences). […] Any nonspecific bands detected were not included in densitometric analyses. […]

α-synuclein = α-synuclein levels by western blot in human midbrain iPS dopamine neurons; assay type: cell-based
Source text: In this Example, it was investigated whether enhancement of lysosomal enzyme trafficking through stimulation of the secretory pathway would result in increased lysosomal function and reduction of α-synuclein. Therefore, in this Example the small GTPase Rab1a polypeptide was overexpressed by lentiviral infection in iPS neurons to stimulate enzyme trafficking. Rab1a polypeptide has been established to function specifically at the ER-Golgi step of the secretory pathway (Duvernay et al., Cell Signal 17: 1457, 2005). The effect of Rab1a polypeptide was determined in human iPS dopamine neurons derived from reprogrammed fibroblasts of a PD patient (Coriell line ND27760). These cells harbor a triplication mutation in the genomic region containing SNCA which encodes for α-synuclein, leading to overexpression of the protein and lysosomal trafficking deficits. […] Further in this Example, it was determined if Rab1a polypeptide enhances lysosomal function by monitoring cathepsin B activity.
as §1, §2

Hela cells = experiment: Lysosomal proteolysis by radioactive pulse-chase in transfected Hela cells; assay type: cell-based
Description: Further in this Example, it was assessed whether GCase polypeptide overexpression had the ability to directly enhance lysosomal proteolysis in a non-neuronal cell line. Hela cells were transfected with a myc-tagged GCase polypeptide expression construct and lysosomal proteolysis was assessed by radioactive pulse-chase (FIG. 17A). […] This effect was also confirmed through a different assay, by measuring the effect of GCase polypeptide overexpression on the activity of the lysosomal protease cathepsin B. A cell-permeable fluorescent-tagged cathepsin B substrate (MAGIC RED cathepsin detection kit, Immunochemistry Technologies) was added to transfected Hela cells, and degradation of this substrate was determined in living cells after substrate wash-out.

primary cortical neurons = experiment: Proteolysis of long-lived proteins by radioactive pulse-chase in primary cortical neurons; assay type: cell-based, mouse; details: added to GCase polypeptide KD
Description: In this Example, a test was conducted to determine whether GCase polypeptide KD affects a lysosomal degradation pathway. In this test, neurons were treated with the well-established lysosomal inhibitors ammonium chloride (NH4Cl) and leupeptin.
Proteolysis of long-lived proteins was determined by radioactive pulse-chase using ^3H-leucine. This procedure was performed as described previously (Kaushik et al. Methods Enzymol. 452: 297, 2009). Briefly, cortical cells were grown in 24 well clusters seeded at 33000 cells/well and infected at moi 3 with scrb or GCase polypeptide shRNA expressing lentiviral vectors. On dpi 4, ^3H-leucine (PerkinElmer, # NET460A001 MC, final 5 μCi/ml) was added in standard neurobasal medium containing B27 for 2 days to trace label proteins. […] Samples were centrifuged at 20,000×g for 20 min, 4° C., and the radioactivity was measured in 5 ml of scintillation cocktail using a Beckman LS 1701 liquid scintillation counter (Beckman Instruments). Precipitated protein pellets were extracted in 200 μl of Na deoxycholate, 0.1 M NaOH, and radioactivity was determined. Percent proteolysis was calculated as described in detail elsewhere (Kaushik et al. Methods Enzymol. 452: 297, 2009). […]

maximal thioT signal at the end stages, fold higher compared to control reactions ([1]; pH 5.0): 2- to 3 fold
α-synuclein fibril formation ([1]; physiological conditions, pH 7.4, 37° C.): no effect
amount of pelletable α-synuclein protein (100,000×g sedimentation) ([2]; pH 5.0, 28 hr): no effect
Compound: Glucosyl (β) Ceramide [GlcCer]

soluble α-synuclein oligomers compared to α-synuclein alone ([2]; pH 5.0, 15 hr incubation, 10:1 lipid:protein ratio): dramatic stabilization and elevation
Compound: monosialotetrahexosylganglioside [ganglioside GM1]

levels of total GCase protein (GCase polypeptide): increased
post-ER forms of GCase (GCase polypeptide): increased
Compound: C#Cc1ccc(NC(=O)c2cnn3c(C)cc(C)nc23)cc1 [NCGC00188758]
α-synuclein protein levels (α-synuclein; neurons from a PD patient with triplication of the SNCA genomic region): dose-dependent decrease
α-synuclein protein levels (α-synuclein; neurons from healthy unaffected controls): dose-dependent decrease

Compound: Cl.N [ammonium chloride]
effect of lysosomal inhibitors on the proteolysis increase by GCase polypeptide overexpression (Hela cells): completely reversed
proteolysis of long-lived proteins in GCase polypeptide shRNA-treated cells (primary cortical neurons): did not additively inhibit
